Assay results reported in paper PMC6246607, “Novel AR-12 derivatives, P12-23 and P12-34, inhibit flavivirus replication by blocking host de novo pyrimidine biosynthesis” (Emerging Microbes & Infections, 2018).
Values joined by “and” are separate entries in the source; they are usually repeats but may differ in a detail not shown here. Equal entries are not always repeated.

What was measured:
[1] = system: DENV-2-eGFP; assay: microbe, parasite or virus in culture; format: cell-based, dengue virus
Description: (§1) Approximately 50% of confluent cells seeded in 96-well plates were infected with viruses in the presence of drugs or DMSO as a solvent control. At 24 h post-infection (hpi), cells were fixed with 4% paraformaldehyde at room temperature (RT) for 20 min, permeated with a 0.5% Triton X-100 buffer for 2 min, and blocked with 3% BSA for 30 min. Nuclei were stained with DAPI (Sigma) at RT for 20 min. Viral NS3 was stained with a mouse anti-NS3 monoclonal antibody (mAb)[47] followed by staining with an Alexa Fluor 488-conjugated goat anti-mouse IgG antibody (ThermoFisher) at RT for 1 h. Nine images from different fields per well were acquired and analyzed using an ImageXpress Micro XLS Widefield High-Content Analysis System (Molecular Devices, Sunnyvale, USA). To quantify viral infection, the fluorescence intensities of viral NS3 or eGFP from the reporter virus were measured using MetaXpress® (Molecular Devices, Sunnyvale, USA) and were calculated with a mock control (infection as 0%) and a DMSO solvent control (infection as 100%).

[2] = system: ZIKV; assay: High-content image analysis of ZIKV infection (NS3) in A549 cells; format: cell-based, Zika virus; settings: ZIKV
Description: as §1

[3] = system: JEV-eGFP; assay: microbe, parasite or virus in culture; format: cell-based, Japanese encephalitis virus
Description: as §1

[4] = system: A549 cells; assay: LDH release cytotoxicity assay; format: cell-based, human; settings: 24 h
Description: (§2) Cells were treated with compounds at the indicated concentrations for 24 h. The release of lactate dehydrogenase (LDH) was measured using a Cytotoxicity Detection Kit (Roche, Basel, Switzerland) after removing cell debris. Cells treated with 1% Triton X-100 were used to determine the maximal LDH release.

[5] = LDH release cytotoxicity assay; format: cell-based, human; settings: human, A549 cells
Description: as §2

| SMILES | SI (CC50/IC50) ([1]; DENV-2-eGFP, A549 cells) | IC50 ([1]; Dengue virus, DENV2, A549, 24 h) [nM] | anti-DENV activity with uridine supplement ([1]; uridine 50 µg/ml, P12-23 1 µM, P12-34 1 µM, AR-12 5 µM, A549 cells) | SI (CC50/IC50) ([2]; A549 cells) | IC50 ([2]; Zika virus, MOI 0.5, A549 cells, 24 h) [nM] | SI (CC50/IC50) ([3]; JEV-eGFP, A549 cells) | IC50 ([3]; Japanese encephalitis virus, A549, 24 h) [nM] | CC50 ([4]; A549 cells) [nM] | noncytotoxic concentrations ([4]; human A549 cells) [µM] | CC50 at 24 h [5] [nM] | effect on DENV replication ([1]; A549 cells, DENV-2-eGFP MOI 5, reversed by exogenous uridine 50 µg/ml) |
| --- | --- | --- | --- | --- | --- | --- | --- | --- | --- | --- | --- |
| NCC(=O)Nc1ccc(-n2nc(C(F)(F)F)cc2-c2ccc3c(ccc4ccccc43)c2)cc1 [AR-12] | 33 and 33.2 ± 5.9 | 660 ± 130 | abolished | 15.8 ± 2 | 1370 ± 177 | 42.3 ± 4.1 | 510 ± 52.4 | 21400 ± 200 | ≤ 12.5 | ~20000 | – |
| O=C(N[C@@H]1CCCc2c1[nH]c1ccc(Cl)cc21)c1ccccn1 [GSK983, reference compound] | – | – | – | – | – | – | – | – | – | – | reduced DENV replication in a dose-dependent manner |
